Data published in patent publication US7718636B2, “Use of 2-methylene-19-nor-20(S)-1alpha,25dihydroxy vitamin d3 to inhibit mammary tumor” (Wisconsin Alumni Research Foundation, priority 2003, dated 2010).

Tests used:
[1] = system: aged, ovariectomized female rats; assay: Survival of aged ovariectomized female rats given 2-MD orally each day for 7.5 months; assay type: in vivo, rat
Protocol: Thus, the experiment was carried out as follows:
(§1) 48 retired female breeder rats of 12 months of age were obtained from the Harlan Sprague-Dawley Company. Upon arrival, the animals were ovariectomized or sham-operated. These animals were housed in individual hanging wire cages and provided water ad libitum. Food consumption was restricted to 19-21 g/day. Animals were maintained on a purified diet described by Suda et al (J. Nutr. 1970) which contained 0.47% calcium and 0.3% phosphorus. In addition, these animals received supplements of vitamin A, E, D, and K as described in the Suda paper. One half of the animals received each day 0.1 ml of Wesson Oil while the remaining one-half of the animals received orally the 0.1 ml of Wesson Oil containing 5 or 7 ng/2-MD/kg body weight. The animals were monitored weekly for body weight, general health and survival. These animals were followed for 7.5 months.

[2] = Body weight in aged female rats; assay type: in vivo; details: at 7-1/2 months, 5 or 7 ng 2-MD/kg orally each day
Excerpt: as §1

calcium from bone = details: compared to 1α,25-dihydroxyvitamin D3; cited from earlier work

C=C1[C@H](O)CC(=C/C=C2\CCC[C@]3(C)[C@@H]([C@@H](C)CCCC(C)(C)O)CC[C@@H]23)C[C@H]1O [2-MD, 2-methylene-19-nor-20(S)-1α,25-dihydroxyvitamin D3]
survival and general health over the entire period ([1]; 5 or 7 ng 2-MD/kg body weight orally each day, 7.5 months): survived the entire period and were in good health | survival rate ([1]; aged, ovariectomized female rats, oral 2-MD each day, 7.5 months): 100% | Survival Ratio #premature deaths/total # animals ([1]; ovariectomized or sham-operated retired female breeder rats, 12 months of age, 5 or 7 ng 2-MD/kg body weight orally each day in Wesson Oil, followed for 7.5 months): 0/24 | Body Weight Final [2]: 382 ± 10 g | ability to mobilize calcium from bone (calcium from bone): very high activity
